Data on 32 compounds can be found in patent US10787446B2 (GENENTECH, INC., priority 2015, dated 2020).

T1 sequence (Q15858 whole entry): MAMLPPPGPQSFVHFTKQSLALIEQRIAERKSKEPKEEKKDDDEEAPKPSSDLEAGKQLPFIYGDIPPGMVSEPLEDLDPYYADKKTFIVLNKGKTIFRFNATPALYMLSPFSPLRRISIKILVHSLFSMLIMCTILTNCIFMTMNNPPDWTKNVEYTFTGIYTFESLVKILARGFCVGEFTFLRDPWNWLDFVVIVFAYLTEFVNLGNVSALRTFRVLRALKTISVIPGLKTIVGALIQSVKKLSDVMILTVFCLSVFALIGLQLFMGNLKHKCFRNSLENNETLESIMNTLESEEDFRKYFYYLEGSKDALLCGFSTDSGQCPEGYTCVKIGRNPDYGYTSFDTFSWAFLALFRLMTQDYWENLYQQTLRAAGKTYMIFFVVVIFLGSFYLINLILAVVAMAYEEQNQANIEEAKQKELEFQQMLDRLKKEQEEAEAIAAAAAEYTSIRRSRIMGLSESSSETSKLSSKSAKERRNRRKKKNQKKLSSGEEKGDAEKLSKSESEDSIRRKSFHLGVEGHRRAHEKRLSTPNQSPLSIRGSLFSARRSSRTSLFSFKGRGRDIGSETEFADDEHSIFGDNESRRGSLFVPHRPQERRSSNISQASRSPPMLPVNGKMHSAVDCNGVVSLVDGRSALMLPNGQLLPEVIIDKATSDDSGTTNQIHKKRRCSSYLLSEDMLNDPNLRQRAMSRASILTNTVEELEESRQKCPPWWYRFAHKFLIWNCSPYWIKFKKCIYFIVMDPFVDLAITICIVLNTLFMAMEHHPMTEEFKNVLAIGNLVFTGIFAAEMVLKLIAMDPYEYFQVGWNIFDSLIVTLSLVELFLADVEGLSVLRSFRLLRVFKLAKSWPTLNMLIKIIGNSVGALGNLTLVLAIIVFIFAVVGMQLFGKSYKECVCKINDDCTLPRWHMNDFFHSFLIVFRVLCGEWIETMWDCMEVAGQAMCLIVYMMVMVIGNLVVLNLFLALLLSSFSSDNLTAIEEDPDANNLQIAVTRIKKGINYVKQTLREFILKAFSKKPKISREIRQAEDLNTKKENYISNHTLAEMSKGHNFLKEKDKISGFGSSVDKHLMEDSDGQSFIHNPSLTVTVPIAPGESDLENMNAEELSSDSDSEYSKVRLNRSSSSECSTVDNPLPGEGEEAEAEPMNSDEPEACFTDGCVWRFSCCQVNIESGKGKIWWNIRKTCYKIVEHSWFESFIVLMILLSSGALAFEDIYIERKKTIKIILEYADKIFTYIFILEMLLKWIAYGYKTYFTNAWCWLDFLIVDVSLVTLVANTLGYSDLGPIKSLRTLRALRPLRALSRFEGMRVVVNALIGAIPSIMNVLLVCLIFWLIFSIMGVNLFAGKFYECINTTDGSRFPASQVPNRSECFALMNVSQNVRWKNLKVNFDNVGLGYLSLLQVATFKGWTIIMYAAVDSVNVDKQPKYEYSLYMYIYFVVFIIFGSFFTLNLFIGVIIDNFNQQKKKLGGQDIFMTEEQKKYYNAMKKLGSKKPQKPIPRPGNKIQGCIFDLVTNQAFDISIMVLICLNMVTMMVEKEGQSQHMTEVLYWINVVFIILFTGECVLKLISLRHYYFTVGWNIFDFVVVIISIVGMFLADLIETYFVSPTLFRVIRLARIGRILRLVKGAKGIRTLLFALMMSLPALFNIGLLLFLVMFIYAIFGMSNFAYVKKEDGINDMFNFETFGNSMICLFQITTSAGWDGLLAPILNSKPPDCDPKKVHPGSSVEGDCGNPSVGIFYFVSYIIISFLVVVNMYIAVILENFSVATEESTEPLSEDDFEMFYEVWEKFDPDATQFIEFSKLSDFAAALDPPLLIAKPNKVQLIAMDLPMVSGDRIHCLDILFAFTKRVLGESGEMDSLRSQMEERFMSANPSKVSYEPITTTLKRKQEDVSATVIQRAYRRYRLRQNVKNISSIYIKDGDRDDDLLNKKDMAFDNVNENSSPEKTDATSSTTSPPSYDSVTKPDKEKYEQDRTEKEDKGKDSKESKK
T1 sequence (Q07699 19-218 partner): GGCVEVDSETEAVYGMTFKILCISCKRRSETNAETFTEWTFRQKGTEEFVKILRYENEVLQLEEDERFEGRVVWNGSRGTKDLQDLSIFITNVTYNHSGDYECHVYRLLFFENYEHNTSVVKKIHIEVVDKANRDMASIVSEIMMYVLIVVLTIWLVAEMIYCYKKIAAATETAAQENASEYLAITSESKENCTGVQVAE

This assay concerns the target T1, hNav1.7 and the β1 subunit (Homo sapiens, UniProt Q15858).
T1 construct: expressed in transfected cells
In words: Tritiated compound competitive binding to membranes from cells heterologously expressing hNav1.7 and the β1 subunit (LBA). Conditions: competition with 100 pM [3H]compound, 18 h, room temperature; IC50 by 4 parameter logistic model. The method, boiled down:
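Membranes were incubated 18 h at room temperature with 100 pM [3H]-labelled NaV1.7 inhibitor and increasing test compound in 100 mM NaCl, 20 mM Tris HCl, pH 7.4. Bound radioligand was filtered on PEI-soaked GF/C, washed, and counted by scintillation. IC50 from a 4-parameter logistic fit of % inhibition.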
As to `O=S(=O)(Nc1ncns1)c1ccc(CN2CCCC[C@@H]2c2ccccc2)c(Cl)c1` [Example 64, (R)-3-chloro-4-((2-phenylpiperidin-1-yl)methyl)-N-(1,2,4-thiadiazol-5-yl)benzenesulfonamide], the “Nav1.7 (LBA)” value turned out to be 0.965 µM.
As for `O=S(=O)(Nc1ncns1)c1ccc(CN2CCCC[C@H]2c2ccccc2)c(Cl)c1` [Example 65, (S)-3-chloro-4-((2-phenylpiperidin-1-yl)methyl)-N-(1,2,4-thiadiazol-5-yl)benzenesulfonamide], the figure is 5.51 µM; as for `O=S(=O)(Nc1ncns1)c1cc(Cl)c(CN2CCCCC2c2ccccc2)cc1F` (centres unmarked) [Example 68, 5-chloro-2-fluoro-4-((2-phenylpiperidin-1-yl)methyl)-N-(1,2,4-thiadiazol-5-yl)benzenesulfonamide], 0.334 µM; as for `O=S(=O)(Nc1ncns1)c1cc(Cl)c(CN2CCCCC2c2ccncc2)cc1F` (centres unmarked) [Example 69, 5-chloro-2-fluoro-4-((2-(pyridin-4-yl)piperidin-1-yl)methyl)-N-(1,2,4-thiadiazol-5-yl)benzenesulfonamide], 0.21 µM.
With `O=S(=O)(Nc1ncns1)c1cc(Cl)c(CN2CCCC[C@H]2c2cccnc2)cc1F` [Example 70, (S)-5-chloro-2-fluoro-4-((2-(pyridin-3-yl)piperidin-1-yl)methyl)-N-(1,2,4-thiadiazol-5-yl)benzenesulfonamide] the figure was 0.175 µM; with `O=S(=O)(Nc1cccc(F)n1)c1ccc(CN2CCCC[C@H]2c2ccccc2)c(Cl)c1` [Example 73, (S)-3-chloro-N-(6-fluoropyridin-2-yl)-4-((2-phenylpiperidin-1-yl)methyl)-benzenesulfonamide], 6.8 µM.
With `O=S(=O)(Nc1cccc(F)n1)c1ccc(CN2CCCC[C@@H]2c2ccccc2)c(Cl)c1` [Example 74, (R)-3-chloro-N-(6-fluoropyridin-2-yl)-4-((2-phenylpiperidin-1-yl)methyl)-benzenesulfonamide] the figure was 2.67 µM.
With `O=S(=O)(Nc1ncns1)c1ccc2c(c1)OCCC2N1CCOC[C@H]1c1ccccc1` (stereo partly drawn) [Example 75, 4-((R)-3-phenylmorpholino)-N-(1,2,4-thiadiazol-5-yl)chromane-7-sulfonamide], the “Nav1.7 (LBA)” value worked out at 0.0859 µM.
With `CN(Cc1ccccc1)[C@H]1CCOc2cc(S(=O)(=O)Nc3ncns3)c(F)cc21` [Example 89, (S)-4-(benzyl(methyl)amino)-6-fluoro-N-(1,2,4-thiadiazol-5-yl)chromane-7-sulfonamide] the figure was 0.096 µM.
As for `O=S(=O)(Nc1ncns1)c1ccc2c(c1)OCC[C@@H]2N1CC[C@@H](C(F)(F)F)C[C@H]1c1ccc(F)c(F)c1` [Example 106, (S)-4-((2S,4R)-2-(3,4-difluorophenyl)-4-(trifluoromethyl)piperidin-1-yl)-N-(1,2,4-thiadiazol-5-yl)chroman-7-sulfonamide], the figure is 0.0016 µM; as for `O=S(=O)(Nc1ncns1)c1ccc2c(c1)OCC[C@@H]2N1CC[C@@H](C(F)(F)F)C[C@@H]1c1ccc(F)c(F)c1` [Example 107, (S)-4-((2R,4R)-2-(3,4-difluorophenyl)-4-(trifluoromethyl)piperidin-1-yl)-N-(1,2,4-thiadiazol-5-yl)chroman-7-sulfonamide], 2.0 µM; as for `O=S(=O)(Nc1ncns1)c1cc(F)c(CN2CCC3(CC3)C[C@H]2c2ccccc2)cc1F` [Example 110, (S)-2,5-difluoro-4-((5-phenyl-6-azaspiro[2.5]octan-6-yl)methyl)-N-(1,2,4-thiadiazol-5-yl)benzenesulfonamide], 0.337 µM.
With `O=S(=O)(Nc1ncns1)c1cc(F)c(CN2CC[C@H](OC(F)(F)F)C[C@@H]2c2ccccc2)cc1F` [Example 112, 2,5-Difluoro-4-(((2R,4S)-2-phenyl-4-(trifluoromethoxy)piperidin-1-yl)methyl)-N-(1,2,4-thiadiazol-5-yl)benzenesulfonamide] the figure was 4.21 µM; with `O=S(=O)(Nc1ncns1)c1cc(F)c(CN2CC[C@@H](O)C[C@H]2c2ccccc2)cc1F` [Example 114, 2,5-Difluoro-4-(((2S,4R)-4-hydroxy-2-phenylpiperidin-1-yl)methyl)-N-(1,2,4-thiadiazol-5-yl)benzenesulfonamide], 9.65 µM; with `Nc1[nH]ncc1C1CCCCN1Cc1cc(F)c(S(=O)(=O)Nc2ncns2)cc1F` (centres unmarked) [Example 118, 4-((2-(5-Amino-1H-pyrazol-4-yl)piperidin-1-yl)methyl)-2,5-difluoro-N-(1,2,4-thiadiazol-5-yl)benzenesulfonamide], 2.26 µM.
Consider `N#Cc1cc(S(=O)(=O)Nc2ncns2)ccc1CN1CC[C@@H](C(F)(F)F)C[C@H]1c1ccccc1` [Example 119, 3-Cyano-4-(((2S,4R)-2-phenyl-4-(trifluoromethyl)piperidin-1-yl)methyl)-N-(1,2,4-thiadiazol-5-yl)benzenesulfonamide], for which the “Nav1.7 (LBA)” value came out at 0.0181 µM.
As for `CN(Cc1ccccc1)[C@H]1CCOc2cc(S(=O)(=O)Nc3ncns3)ccc21` [Example 120, (S)-4-(benzyl(methyl)amino)-N-(1,2,4-thiadiazol-5-yl)chroman-7-sulfonamide], the figure is 0.376 µM; as for `N#CC1CCN([C@H]2CCOc3cc(S(=O)(=O)Nc4ncns4)ccc32)CC1` [Example 147, (S)-4-(4-cyanopiperidine-1-yl)-N-(1,2,4-thiadiazol-5-yl)chromane-7-sulfonamide], 5.36 µM.
As for `CC1(C#N)CCN([C@H]2CCOc3cc(S(=O)(=O)Nc4ncns4)ccc32)CC1` [Example 149, (S)-4-(4-cyano-4-methylpiperidin-1-yl)-N-(1,2,4-thiadiazol-5-yl)chromane-7-sulfonamide], the figure is 8.6 µM.
With `O=S(=O)(Nc1ncns1)c1ccc2c(c1)OCC[C@@H]2N1CCC(C(F)F)CC1` [Example 150, (S)-4-(4-(difluoromethyl)piperidin-1-yl)-N-(1,2,4-thiadiazol-5-yl)chromane-7-sulfonamide] the figure was 1.44 µM; with `O=S(=O)(Nc1ncns1)c1ccc2c(c1)OCC[C@@H]2N1CCC2(CC1)COC2` [Example 153, (S)-4-(2-oxa-7-azaspiro[3.5]nonan-7-yl)-N-(1,2,4-thiadiazol-5-yl)chromane-7-sulfonamide], 5.5 µM; with `N#CC1CC12CCN([C@H]1CCOc3cc(S(=O)(=O)Nc4ncns4)ccc31)CC2` (some centres unmarked) [Example 154], 4.52 µM.
As to `Cn1nccc1[C@@H]1C[C@H](C(F)(F)F)CCN1[C@@H]1CCOc2cc(S(=O)(=O)Nc3nccs3)c(F)cc21` [Example 159], the “Nav1.7 (LBA)” value came out at 0.18 µM.
With `Cn1nccc1[C@H]1C[C@@H](C(F)(F)F)CCN1[C@@H]1CCOc2cc(S(=O)(=O)Nc3nccs3)c(F)cc21` [Example 160] the figure was 0.442 µM; with `CS(=O)(=O)[C@@H]1CCN([C@H]2CCOc3cc(S(=O)(=O)Nc4ncns4)ccc32)[C@H](c2ccc(F)cc2)C1` [Example 161, (S)-4-((2S,4R)-2-(4-fluorophenyl)-4-(methylsulfonyl)piperidin-1-yl)-N-(1,2,4-thiadiazol-5-yl)chroman-7-sulfonamide], 0.00853 µM.
With `CS(=O)(=O)[C@@H]1CCN([C@@H]2CCOc3cc(S(=O)(=O)Nc4ncns4)ccc32)[C@H](c2ccc(F)cc2)C1` [Example 162, (R)-4-((2S,4R)-2-(4-fluorophenyl)-4-(methylsulfonyl)piperidin-1-yl)-N-(1,2,4-thiadiazol-5-yl)chroman-7-sulfonamide] the figure was 3 µM.
Turning to `CS(=O)(=O)[C@H]1CCN([C@H]2CCOc3cc(S(=O)(=O)Nc4ncns4)ccc32)[C@@H](c2ccc(F)cc2)C1` [Example 163, (S)-4-((2R,4S)-2-(4-fluorophenyl)-4-(methylsulfonyl)piperidin-1-yl)-N-(1,2,4-thiadiazol-5-yl)chroman-7-sulfonamide], the “Nav1.7 (LBA)” value is 0.0223 µM.
As for `CS(=O)(=O)[C@H]1CCN([C@@H]2CCOc3cc(S(=O)(=O)Nc4ncns4)ccc32)[C@@H](c2ccc(F)cc2)C1` [Example 164, (R)-4-((2R,4S)-2-(4-fluorophenyl)-4-(methylsulfonyl)piperidin-1-yl)-N-(1,2,4-thiadiazol-5-yl)chroman-7-sulfonamide], the figure is 0.208 µM; as for `CS(=O)(=O)[C@@H]1CCN([C@@H]2CCOc3cc(S(=O)(=O)Nc4nccs4)c(F)cc32)[C@H](c2ccc(F)cc2)C1` [Example 165, (R)-6-fluoro-4-((2S,4R)-2-(4-fluorophenyl)-4-(methylsulfonyl)piperidin-1-yl)-N-(thiazol-2-yl)chroman-7-sulfonamide], 1.01 µM; as for `CS(=O)(=O)[C@@H]1CCN([C@H]2CCOc3cc(S(=O)(=O)Nc4nccs4)c(F)cc32)[C@H](c2ccc(F)cc2)C1` [Example 166, (S)-6-fluoro-4-((2S,4R)-2-(4-fluorophenyl)-4-(methylsulfonyl)piperidin-1-yl)-N-(thiazol-2-yl)chroman-7-sulfonamide], 0.00212 µM.
With `O=S(=O)(Nc1ncns1)c1ccc2c(c1)OCC[C@H]2N1CC[C@@](O)(C(F)(F)F)C[C@H]1c1ccc(F)cc1` [Example 167, (R)-4-((2S,4S)-2-(4-fluorophenyl)-4-hydroxy-4-(trifluoromethyl)piperidin-1-yl)-N-(1,2,4-thiadiazol-5-yl)chroman-7-sulfonamide] the figure was 3 µM; with `O=S(=O)(Nc1ncns1)c1ccc2c(c1)OCC[C@@H]2N1CC[C@@](O)(C(F)(F)F)C[C@H]1c1ccc(F)cc1` [Example 168, (S)-4-((2S,4S)-2-(4-fluorophenyl)-4-hydroxy-4-(trifluoromethyl)piperidin-1-yl)-N-(1,2,4-thiadiazol-5-yl)chroman-7-sulfonamide], 0.000878 µM.
